≈ marks a conversion by molar mass, not a printed value.
What was measured:
[1] = Water solubility comparison of PEGTA compounds and conventional BAPTA calcium indicator AM esters; format: physicochemical; conditions: PBS, AM ester; for solubility: aqueous buffer, 25° C., read-out: Water solubility at 25° C. (PEGTA Compound)
CHO-K1 cells = experiment: ATP-stimulated calcium response monitored with FlexStation; format: cell-based; conditions: in the absence of probenecid; compared with Fluo-4 AM
Method: (§1) CHO-K1 cells are seeded overnight at 50,000 cells per 100 μl per well in a 96-well black wall/clear bottom costar plate. The growth medium is removed, and the cells are incubated with 100 μl of Compound 24 and Fluo-4 AM at 5 μM in Hanks and Hepes buffer in the presence of 2.5 mM probenecid for 1 hour at 37° C., 5% CO2 incubator. ATP (10 μM) is added by FlexStation to stimulate cell calcium, and the time-dependent calcium response is monitored with FlexStation.
CHO-K1 cells are seeded overnight at 50,000 cells per 100 μl per well in a 96-well black wall/clear bottom costar plate. The growth medium is removed, and the cells are incubated with 100 μl of Compound 24 and Fluo-4 AM at 5 μM in Hanks and Hepes buffer for 2 hours at 25° C. ATP (50 μL/well) is added by FlexStation to achieve the final desired concentrations.
as §1, with “CHO-K” for “CHO-K1”, “FlexStation. […]” for “FlexStation.”

[2] = tested on: CHO cells stably transfected with muscarinic receptor 1; experiment: Calcium flux assay, indicator AM esters loaded into cells, with or without probenecid; format: cell-based; conditions: probenecid is not used
Method: In some embodiments, the fluorescent ion indicators are used in a method to measure calcium flux. Cells (e.g., CHO cells) stably transfected with muscarinic receptor 1 are plated—e.g., at 60,000 cells per 100 μl per well in F12 with 5% FBS and 1% glutamine in a 96-well black wall/clear bottom Costar plate—and incubated (e.g., in 5% CO2 at 37° C. overnight). The growth medium is removed and the cells are incubated with a fluorescent ion indicator (e.g., with 100 μl/well of 1-8 μM Fluo-3 AM, Fluo-4 AM or one or more compounds selected from Compound 22, 23, 24, 28, 33, 34, 40, 41 or 188 in Hanks and HEPES buffer for 1 hour at 37° C., 5% CO2) with or without probenecid. Carbachol or ATP is added (e.g., 50 μl/well by NOVOstar, FlexStation or FLIPR) to achieve a final concentration.
Cells expressing a GPCR of interest that signals through calcium are pre-loaded with the indicator AM esters (such as Fluo-3 AM. Fluo-4 AM, Compounds 22, 23, 24, 28, 33, 34, 40, 41 or 188) which can cross cell membrane. […] When the sample cells are stimulated with screening compounds, the receptor triggers a release of intracellular calcium, which then greatly increases the fluorescence of the intracellular indicators. […]

| solubility [1] | Water solubility at 25° C. (BAPTA Compound) [1] | SMILES | fluorescence intensity enhancement upon calcium stimulation (CHO-K1 cells) | fluorescence intensity compared with the corresponding BAPTA compounds [2] | capability of detecting calcium [2] |
| --- | --- | --- | --- | --- | --- |
| 1.29 µg/mL (≈ 1.34 µM) | – | CC(=O)OCOC(=O)CN(CCOCCOc1cc(C2=C3C(C)=CC(C)=[N+]3[B-](F)(F)n3c(C)cc(C)c32)ccc1N(CC(=O)OCOC(C)=O)CC(=O)OCOC(C)=O)CC(=O)OCOC(C)=O [Compound 188] | – | – | – |
| 1.63 µg/mL (≈ 1.49 µM) | – | CC(=O)OCOC(=O)CN(CCOCCOc1cc2c(cc1N(CC(=O)OCOC(C)=O)CC(=O)OCOC(C)=O)C(=O)OC21c2cc(F)c(OC(C)=O)cc2Oc2cc(OC(C)=O)c(F)cc21)CC(=O)OCOC(C)=O [Compound 22] | – | – | – |
| – | 1.26 μg/ml PBS | CC(=O)OCOC(=O)CN(CC(=O)OCOC(C)=O)c1ccc(C)cc1OCCOc1cc(-c2c3cc(F)c(=O)cc-3oc3cc(OCOC(C)=O)c(F)cc23)ccc1N(CC(=O)OCOC(C)=O)CC(=O)OCOC(C)=O [Fluo-4 AM, reference compound] | – | – | not capable of detecting calcium in some types of cells and tissues |

| SMILES | solubility [1] | Water solubility at 25° C. (BAPTA Compound) [1] | fluorescence intensity enhancement upon calcium stimulation (CHO-K1 cells) | fluorescence intensity compared with the corresponding BAPTA compounds [2] | capability of detecting calcium [2] |
| --- | --- | --- | --- | --- | --- |
| CC(=O)OCOC(=O)CN(CCOCCOc1cc(-c2c3cc(F)c(=O)cc-3oc3cc(OCOC(C)=O)c(F)cc23)ccc1N(CC(=O)OCOC(C)=O)CC(=O)OCOC(C)=O)CC(=O)OCOC(C)=O [Compound 24] | 2.18 µg/mL (≈ 2.11 µM) | – | unexpected better fluorescence intensity enhancement | much greater than that of the corresponding BAPTA compounds | – |

Source: patent US9810700B1, “Fluorogenic calcium ion indicators and methods of using the same” (AAT Bioquest, Inc., priority 2017, dated 2017)
